Data as given in BindingDB's records for doi:10.7270/Q25719N6 (The Scripps Research Institute Molecular Screening Center, 2013).

Molecular target: T1, Fructose-bisphosphate aldolase (Mycobacterium tuberculosis (strain ATCC 25618 / H37Rv), UniProt P9WQA3)
T1 sequence (P9WQA3 whole entry): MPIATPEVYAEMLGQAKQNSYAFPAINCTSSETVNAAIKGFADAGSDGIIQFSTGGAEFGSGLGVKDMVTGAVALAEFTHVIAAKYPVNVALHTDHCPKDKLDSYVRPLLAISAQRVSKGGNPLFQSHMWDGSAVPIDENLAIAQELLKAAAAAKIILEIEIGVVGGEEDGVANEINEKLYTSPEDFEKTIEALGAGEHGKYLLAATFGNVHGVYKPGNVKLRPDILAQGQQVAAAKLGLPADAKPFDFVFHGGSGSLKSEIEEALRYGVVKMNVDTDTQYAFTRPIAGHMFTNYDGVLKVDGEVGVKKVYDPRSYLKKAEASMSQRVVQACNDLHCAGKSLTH

Structure (SMILES): O=C(NCc1cccc(Cl)c1)C1=C2NS(=O)(=O)C=CN2C=CC1 [MLS002162417]
- IC50: 2.61 µM

Structure (SMILES): N#CC1=C(C2CC2)CC(c2ccccc2)C(C#N)C1=N (configuration not stated) [SMR000039375]
- IC50: > 10 µM
